Assay results as given in US20180037923A1, “SELECTIVE DETECTION OF LACTIC ACID AND/OR ACETIC ACID BACTERIA OR OF FUNGI” (priority 2015, published 2018).

Tests used:
Assay in all cases: Agar plate count after contact with antifungal
[1] = system: Lactobacillus brevis IFBM; type: cell-based; details: count at contact time 0 h 7.10^5 CFU/mL
Source text: (§1) The word “bactericide” refers to a treatment having the effect of reducing a bacterial population by at least three decimal logarithms of colony forming units/ml on an agar plate count of a sample after treatment.
(§2) The toxicity results on yeasts and on bacteria are presented in the table below displaying the duration of exposure of the fungal flora to molecule A1 and the associated fluorescence measurement: yeasts lysis after exposure to the antifungal was confirmed by microscopic examination and methylene blue staining.
(§3) The words “contact time” refer to below, the time of exposure of the microorganisms to the fungicidal product, here molecule A1.
(§4) Below: “No CFU” is the abbreviation for “No Colony forming unit on agar plate count”.
(§5) The toxicity results on yeasts and on bacteria are presented in the table below displaying the duration of exposure of the fungal flora to the molecule A2 and are obtained by enumeration on MRS agar media.

[2] = system: Zyggosaccharomyces bailii; type: cell-based; details: 400 mg/L; count at contact time 0 h 3.10^5 CFU/mL
Source text: as §1, §2, §3, §4, §5

G. oxydans DSM 7145 = type: cell-based, Gluconobacter oxydans
Source text: as §1, §2, §3, §4, §5

SMILES: C[C@@H]1[C@H](O)[C@@H](C)/C=C/C=C/C=C/C=C/C=C/C=C/C=C/[C@H](O[C@@H]2O[C@H](C)[C@@H](O)[C@H](N)[C@@H]2O)C[C@@H]2O[C@](O)(C[C@@H](O)C[C@@H](O)[C@H](O)CC[C@@H](O)C[C@@H](O)CC(=O)O[C@H]1C)C[C@H](O)[C@H]2C(=O)O [Molecule A1, Amphotericin B]
- Agar plate count contact time 4 h ([1]; 200 mg/L): 2.9.10^5 CFU/mL
- Agar plate count contact time 4 h ([1]; 400 mg/L): 3.10^5 CFU/mL
- Agar plate count contact time 4 h [2]: No CFU
- Agar plate count contact time 4 h (G. oxydans DSM 7145; 200 mg/L, count at contact time 0 h 8.10^8 CFU/mL): 1.10^9 CFU/mL
- Agar plate count contact time 4 h (G. oxydans DSM 7145; 400 mg/L, count at contact time 0 h 8.10^7 CFU/mL): 9.10^7 CFU/mL
